Test results taken from patent US20250040552A1, “FUNGICIDAL COMPOSITIONS” (SYNGENTA CROP PROTECTION AG, priority 2021, published 2025).

Tests used:
[1] = test system: Blumeria graminis f. sp. tritici (Erysiphe graminis f. sp. tritici); test: Example A4: Blumeria graminis f. sp. tritici / wheat / leaf disc preventative (powdery mildew on wheat); assay type: in vivo; conditions: foliar, compared to untreated control
Source text: Example A4: Blumeria graminis f. Sp. Tritici (Erysiphe graminis f. Sp. Tritici)/Wheat/Leaf Disc Preventative (Powdery Mildew on Wheat) Wheat leaf segments cv. Kanzler are placed on agar in a multiwell plate (24-well format) and sprayed with the formulated test compound diluted in water. The leaf disks are inoculated by shaking powdery mildew infected plants above the test plates 1 day after application. […] […].10, and X.11.

[2] = test system: Magnaporthe grisea (Pyricularia oryzae); test: whole plant or invertebrate; assay type: in vivo; conditions: foliar, read-out: control of Magnaporthe grisea
Alternaria solani = test: Example A1: Alternaria solani / tomato / leaf disc (early blight); assay type: in vivo; conditions: foliar, tomato leaf disks, compared to untreated control
Experimental: Example A1: Alternaria solani/Tomato/Leaf Disc (Early Blight) Tomato leaf disks cv. Baby are placed on agar in multiwell plates (24-well format) and sprayed with the formulated test compound diluted in water. The leaf disks are inoculated with a spore suspension of the fungus 2 days after application. The inoculated leaf disks are incubated at 23° C./21° C. […] […].10, and X.11.

[3] = test system: Glomerella lagenarium (Colletotrichum lagenarium); test: Example A3: Glomerella lagenarium (Colletotrichum lagenarium) / liquid culture (anthracnose); assay type: cell-based; conditions: Colletotrichum orbiculare, compared to untreated control
Source text: Example A3: Glomerella lagenarium (Colletotrichum lagenarium)/Liquid Culture (Anthracnose) Conidia of the fungus from cryogenic storage are directly mixed into nutrient broth (PDB potato dextrose broth). […] […].10, and X.11.

[4] = test system: Puccinia recondita f. sp. tritici; test: Example A10: Puccinia recondita f. sp. tritici / wheat / leaf disc preventative (brown rust); assay type: in vivo; conditions: foliar, compared to untreated control
Experimental: Example A10: Puccinia recondita f. Sp. Tritici/Wheat/Leaf Disc Preventative (Brown Rust) Wheat leaf segments cv. Kanzler are placed on agar in multiwell plates (24-well format) and sprayed with the formulated test compound diluted in water. The leaf disks are inoculated with a spore suspension of the fungus 1 day after application. The inoculated leaf segments are incubated at 19° C. and 75% rh under a light regime of 12 h light/12 h darkness in a climate cabinet and the activity of a compound is assessed as percent disease control compared to untreated when an appropriate level of disease damage appears in untreated check leaf segments (7-9 days after application). […] […].10, and X.11.

[5] = test system: Monographella nivalis (Microdochium nivale); test: Example A6: Monographella nivalis (Microdochium nivale) / liquid culture (foot rot cereals); assay type: cell-based; conditions: compared to untreated control
Source text: Example A6: Monographella nivalis (Microdochium nivale)/Liquid Culture (Foot Rot Cereals) Conidia of the fungus from cryogenic storage are directly mixed into nutrient broth (PDB potato dextrose broth). […] […].10, and X.11.

Pyrenophora teres = test: Example A12: Pyrenophora teres / barley / leaf disc preventative (net blotch); assay type: in vivo; conditions: foliar, compared to untreated control
Experimental: Example A12: Pyrenophora teres/Barley/Leaf Disc Preventative (Net Blotch) Barley leaf segments cv. Hasso are placed on agar in a multiwell plate (24-well format) and sprayed with the formulated test compound diluted in water. The leaf […] inoculated with a spore suspension of the fungus 2 days after application. The inoculated leaf segments are incubated at 20° C. and 65% rh under a light regime of 12 h light/12 h darkness in a climate cabinet and the activity of a compound is assessed as disease control compared to untreated when an appropriate level of disease damage appears in untreated check leaf segments (5-7 days after application). […] […].10, and X.11.

Sclerotinia sclerotiorum = test: Example A13: Sclerotinia sclerotiorum / liquid culture (cottony rot); assay type: cell-based; conditions: 20 ppm, compared to untreated control

Row | Compound | pest or weed control at 200 ppm [1] [%] | pest or weed control at 200 ppm [2] [%] | pest or weed control at 200 ppm (Alternaria solani) [%] | inhibition of growth at 20 ppm [3] [%] | pest or weed control at 200 ppm [4] [%] | inhibition of growth at 20 ppm [5] [%] | pest or weed control at 200 ppm (Pyrenophora teres) [%] | control of Sclerotinia sclerotiorum (Sclerotinia sclerotiorum)
1 | Cc1sc(N(C(=O)COC(C)(C)C)c2cc(F)nc(F)c2)nc1C(=O)NC1CCC1(C)C (centres unmarked) [X.07, 2-[(2-tert-butoxyacetyl)-(2,6-difluoro-4-pyridyl)amino]-N-(2,2-dimethylcyclobutyl)-5-methyl-thiazole-4-carboxamide] | ≥ 80 | ≥ 80 |  |  |  |  |  | 
2 | Cc1sc(N(C(=O)C2CCOC2)c2cc(F)nc(F)c2)nc1C(=O)N(C(=O)C1CCOC1)C1CCC1(C)C (centres unmarked) [Compound X.01, 2-[(2,6-difluoro-4-pyridyl)-(tetrahydrofuran-3-carbonyl)amino]-N-(2,2-dimethylcyclobutyl)-5-methyl-N-(tetrahydrofuran-3-carbonyl)thiazole-4-carboxamide] | ≥ 80 | ≥ 80 | ≥ 80 | ≥ 80 | ≥ 80 | ≥ 80 | ≥ 80 | 
3 | Cc1sc(N(C(=O)C(C)OC(C)(C)C)c2cc(F)nc(F)c2)nc1C(=O)NC1CCC1(C)C (centres unmarked) [X.05, 2-[2-tert-butoxypropanoyl-(2,6-difluoro-4-pyridyl)amino]-N-(2,2-dimethylcyclobutyl)-5-methyl-thiazole-4-carboxamide] | ≥ 80 | ≥ 80 | ≥ 80 |  | ≥ 80 | ≥ 80 | ≥ 80 | 
4 | Cc1sc(N(C(=O)C(C)OC(C)C)c2cc(F)nc(F)c2)nc1C(=O)NC1CCC1(C)C (centres unmarked) [X.06, 2-[(2,6-difluoro-4-pyridyl)-(2-isopropoxypropanoyl)amino]-N-(2,2-dimethylcyclobutyl)-5-methyl-thiazole-4-carboxamide] | ≥ 80 | ≥ 80 | ≥ 80 | ≥ 80 | ≥ 80 | ≥ 80 | ≥ 80 | 
5 | Cc1sc(N(C(=O)C(C)S(C)(=O)=O)c2cc(F)nc(F)c2)nc1C(=O)NC1CCC1(C)C (centres unmarked) [X.10, 2-[(2,6-difluoro-4-pyridyl)-(2-methylsulfonylpropanoyl)amino]-N-(2,2-dimethylcyclobutyl)-5-methyl-thiazole-4-carboxamide] | ≥ 80 | ≥ 80 | ≥ 80 | ≥ 80 |  | ≥ 80 | ≥ 80 | at least 80%
6 | COC(C)C(=O)N(c1cc(F)nc(F)c1)c1nc(C(=O)NC2CCC2(C)C)c(C)s1 (centres unmarked) [X.09, 2-[(2,6-difluoro-4-pyridyl)-(2-methoxypropanoyl)amino]-N-(2,2-dimethylcyclobutyl)-5-methyl-thiazole-4-carboxamide] | ≥ 80 | ≥ 80 | ≥ 80 | ≥ 80 | ≥ 80 | ≥ 80 | ≥ 80 | 
7 | Cc1sc(N(C(=O)COC(C)C)c2cc(F)nc(F)c2)nc1C(=O)NC1CCC1(C)C (centres unmarked) [X.08, 2-[(2,6-difluoro-4-pyridyl)-(2-isopropoxyacetyl)amino]-N-(2,2-dimethylcyclobutyl)-5-methyl-thiazole-4-carboxamide] | ≥ 80 | ≥ 80 |  |  |  |  |  | 
8 | Cc1sc(N(C(=O)C2COC2)c2cc(F)nc(F)c2)nc1C(=O)NC1CCC1(C)C (centres unmarked) [X.04, 2-[(2,6-difluoro-4-pyridyl)-(oxetane-3-carbonyl)amino]-N-(2,2-dimethylcyclobutyl)-5-methyl-thiazole-4-carboxamide] | ≥ 80 | ≥ 80 | ≥ 80 | ≥ 80 | ≥ 80 | ≥ 80 | ≥ 80 | 
9 | Cc1sc(N(C(=O)C2CCOCC2)c2cc(F)nc(F)c2)nc1C(=O)NC1CCC1(C)C (centres unmarked) [X.11, 2-[(2,6-difluoro-4-pyridyl)-(tetrahydropyran-4-carbonyl)amino]-N-(2,2-dimethylcyclobutyl)-5-methyl-thiazole-4-carboxamide] | ≥ 80 |  | ≥ 80 | ≥ 80 | ≥ 80 | ≥ 80 | ≥ 80 | 
10 | Cc1sc(N(C(=O)C2CCCO2)c2cc(F)nc(F)c2)nc1C(=O)NC1CCC1(C)C (centres unmarked) [X.02, 2-[(2,6-difluoro-4-pyridyl)-(tetrahydrofuran-2-carbonyl)amino]-N-(2,2-dimethylcyclobutyl)-5-methyl-thiazole-4-carboxamide] | ≥ 80 | ≥ 80 | ≥ 80 | ≥ 80 | ≥ 80 | ≥ 80 | ≥ 80 | 
11 | Cc1sc(N(C(=O)C2CCOC2)c2cc(F)nc(F)c2)nc1C(=O)NC1CCC1(C)C (centres unmarked) [X.03, 2-[(2,6-difluoro-4-pyridyl)-(tetrahydrofuran-3-carbonyl)amino]-N-(2,2-dimethylcyclobutyl)-5-methyl-thiazole-4-carboxamide] | ≥ 80 | ≥ 80 | ≥ 80 | ≥ 80 | ≥ 80 | ≥ 80 | ≥ 80 | 
